From ChEMBL document CHEMBL1201861, “Genomics of Drug Sensitity in Cancer screening data, Wellcome Trust Sanger Institute”
pIC50: −log10 of the molar value.

Columns and labels:
IST-SL2 = assay: cells; format: functional, cell-based, Homo sapiens; details: Homo sapiens, IST-SL2;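 also: growth inhibition of human IST-SL2 cells, read out by a cell viability assay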
Description: SANGER: Inhibition of human IST-SL2 cell growth in a cell viability assay.

MOLT-13 = assay: cells; format: functional, cell-based, Homo sapiens; details: Homo sapiens, MOLT-13;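 also: IC50 for suppression of MOLT-13 cell growth, read out with a cell viability assay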
Description: SANGER: Inhibition of human MOLT-13 cell growth in a cell viability assay.

NCI-H1417 = assay: cells; format: functional, cell-based, Homo sapiens; details: Homo sapiens, NCI-H1417;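 also: human NCI-H1417 cells, growth inhibition determined with a cell viability readout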
Description: SANGER: Inhibition of human NCI-H1417 cell growth in a cell viability assay.

NCI-H1522 = assay: cells; format: functional, cell-based, Homo sapiens; details: Homo sapiens, NCI-H1522;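 also: growth inhibition of NCI-H1522 cells, read out with a cell viability assay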
Description: SANGER: Inhibition of human NCI-H1522 cell growth in a cell viability assay.

NCI-H322M = assay: cells; format: functional, cell-based, Homo sapiens; details: Homo sapiens, NCI-H322M;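 also: cell viability assay measuring inhibition of growth of human NCI-H322M cells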
Description: SANGER: Inhibition of human NCI-H322M cell growth in a cell viability assay.

RPMI-6666 = assay: cells; format: functional, cell-based, Homo sapiens; details: Homo sapiens, RPMI-6666
Description: SANGER: Inhibition of human RPMI-6666 cell growth in a cell viability assay.

RPMI 8402 = assay: SANGER: Inhibition of human RPMI-8402 cell growth in a cell viability assay.; format: functional, cell-based; details: Homo sapiens, RPMI 8402; read-out: IC50
SNU-C1 = assay: cells; format: functional, cell-based, Homo sapiens; details: Homo sapiens, SNU-C1;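 also: growth inhibition of SNU-C1 human cells, read out by a cell viability assay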
Description: SANGER: Inhibition of human SNU-C1 cell growth in a cell viability assay.

SU-DHL-1 = assay: SANGER: Inhibition of human SU-DHL-1 cell growth in a cell viability assay.; format: functional, cell-based; details: Homo sapiens, SU-DHL-1
ARH-77 = assay: cells; format: functional, cell-based, Homo sapiens; details: Homo sapiens, ARH-77;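 also: growth inhibition of ARH-77 cells, read out by a cell viability assay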
Description: SANGER: Inhibition of human ARH-77 cell growth in a cell viability assay.

TE-441-T = assay: cells; format: functional, cell-based, Homo sapiens; details: Homo sapiens, TE-441-T
Description: SANGER: Inhibition of human TE-441-T cell growth in a cell viability assay.

TUR = assay: cells; format: functional, cell-based, Homo sapiens; details: Homo sapiens, TUR
Description: SANGER: Inhibition of human TUR cell growth in a cell viability assay.

WSU-NHL = assay: cells; format: functional, cell-based, Homo sapiens; details: Homo sapiens, WSU-NHL
Description: SANGER: Inhibition of human WSU-NHL cell growth in a cell viability assay.

DBTRG-05MG = assay: cells; format: functional, cell-based, Homo sapiens; details: Homo sapiens, DBTRG-05MG;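 also: cell viability assay measuring growth inhibition of human DBTRG-05MG cells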
Description: SANGER: Inhibition of human DBTRG-05MG cell growth in a cell viability assay.

EFO-21 = assay: cells; format: functional, cell-based, Homo sapiens; details: Homo sapiens, EFO-21;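 also: growth inhibition of EFO-21 cells measured with a viability assay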
Description: SANGER: Inhibition of human EFO-21 cell growth in a cell viability assay.

FaDu = assay: cells; format: functional, cell-based, Homo sapiens; details: Homo sapiens, FaDu;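 also: cell viability readout of growth inhibition in FaDu cells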
Description: SANGER: Inhibition of human FADU cell growth in a cell viability assay.

G-361 = assay: cells; format: functional, cell-based, Homo sapiens; details: Homo sapiens, G-361
GAMG = assay: cells; format: functional, cell-based, Homo sapiens; details: Homo sapiens, GAMG;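 also: cell growth inhibition measured by a viability assay in the GAMG human cell line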
Description: SANGER: Inhibition of human GAMG cell growth in a cell viability assay.

HT-3 = assay: cells; format: functional, cell-based, Homo sapiens; details: Homo sapiens, HT-3;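 also: growth inhibition measured with a cell viability readout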
Description: SANGER: Inhibition of human HT-3 cell growth in a cell viability assay.

IGROV-1 = assay: cells; format: functional, cell-based, Homo sapiens; details: Homo sapiens, IGROV-1;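 also: reduction of IGROV-1 cell growth, read out with a viability assay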
Description: SANGER: Inhibition of human IGROV-1 cell growth in a cell viability assay.

KU-19-19 = assay: cells; format: functional, cell-based, Homo sapiens; details: Homo sapiens, KU-19-19
Description: SANGER: Inhibition of human KU-19-19 cell growth in a cell viability assay.

KYSE-520 cell line = assay: cells; format: functional, cell-based, Homo sapiens; details: Homo sapiens, KYSE-520;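 also: growth inhibition of human KYSE-520 cells, read out with a viability assay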
Description: SANGER: Inhibition of human KYSE-520 cell growth in a cell viability assay.

LoVo = assay: cells; format: functional, cell-based, Homo sapiens; details: Homo sapiens, LoVo
Description: SANGER: Inhibition of human LoVo cell growth in a cell viability assay.

MDA-MB-157 = assay: cells; format: functional, cell-based, Homo sapiens; details: Homo sapiens, MDA-MB-157
Description: SANGER: Inhibition of human MDA-MB-157 cell growth in a cell viability assay.

MDA-MB-361 = assay: cells; format: functional, cell-based, Homo sapiens; details: Homo sapiens, MDA-MB-361
MEL-HO = assay: cells; format: functional, cell-based, Homo sapiens; details: Homo sapiens, MEL-HO
Description: SANGER: Inhibition of human MEL-HO cell growth in a cell viability assay.

MKN-28 = assay: cells; format: functional, cell-based, Homo sapiens; details: Homo sapiens, MKN-28;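 also: cell viability assay read-out, IC50 reflects suppression of growth of human MKN-28 cells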
Description: SANGER: Inhibition of human MKN28 cell growth in a cell viability assay.

MeWo = assay: cells; format: functional, cell-based, Homo sapiens; details: Homo sapiens, MeWo;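 also: growth inhibition of MeWo cells, determined by a cell viability readout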
Description: SANGER: Inhibition of human Mewo cell growth in a cell viability assay.

NCI-H2405 = assay: cells; format: functional, cell-based, Homo sapiens; details: Homo sapiens, NCI-H2405
Description: SANGER: Inhibition of human NCI-H2405 cell growth in a cell viability assay.

NUGC-3 = assay: cells; format: functional, cell-based, Homo sapiens; details: Homo sapiens, NUGC-3;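 also: growth inhibition of human NUGC-3 cells, read out with a cell viability assay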
Description: SANGER: Inhibition of human NUGC-3 cell growth in a cell viability assay.

PC-14 = assay: cells; format: functional, cell-based, Homo sapiens; details: Homo sapiens, PC-14;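 also: cell viability assay measuring inhibition of PC-14 cell growth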
Description: SANGER: Inhibition of human PC-14 cell growth in a cell viability assay.

SBC-5 = assay: cells; format: functional, cell-based, Homo sapiens; details: Homo sapiens, SBC-5;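 also: cell viability assay read-out, IC50 is the concentration that inhibits growth of the cells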
Description: SANGER: Inhibition of human SBC-5 cell growth in a cell viability assay.

SF-295 = assay: cells; format: functional, cell-based, Homo sapiens; details: Homo sapiens, SF-295;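 also: growth inhibition of SF-295 cells, read out with a cell viability assay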
Description: SANGER: Inhibition of human SF295 cell growth in a cell viability assay.

SW837 = assay: cells; format: functional, cell-based, Homo sapiens; details: Homo sapiens, SW837;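 also: growth inhibition of SW837 cells, determined with a cell viability assay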
Description: SANGER: Inhibition of human SW837 cell growth in a cell viability assay.

SAOS-2 = assay: cells; format: functional, cell-based, Homo sapiens; details: Homo sapiens, SAOS-2;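 also: growth inhibition of human Saos-2 cells determined by a cell viability assay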
Description: SANGER: Inhibition of human Saos-2 cell growth in a cell viability assay.

SiHa = assay: cells; format: functional, cell-based, Homo sapiens; details: Homo sapiens, SiHa;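 also: Viability-based readout of growth inhibition in SiHa cells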
Description: SANGER: Inhibition of human SiHa cell growth in a cell viability assay.

T98G = assay: cells; format: functional, cell-based, Homo sapiens; details: Homo sapiens, T98G;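 also: growth inhibition of T98G cells, read out by a cell viability assay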
Description: SANGER: Inhibition of human T98G cell growth in a cell viability assay.

CWR22R = assay: cells; format: functional, cell-based, Homo sapiens; details: Homo sapiens, 22Rv1;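 also: growth inhibition of 22Rv1 cells, read out with a cell viability assay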
Description: SANGER: Inhibition of human 22RV1 cell growth in a cell viability assay.

A-427 = assay: cells; format: functional, cell-based, Homo sapiens; details: Homo sapiens, A-427;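 also: growth inhibition of human A-427 cells, read out by a cell viability assay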
Description: SANGER: Inhibition of human A427 cell growth in a cell viability assay.

AU565 = assay: cells; format: functional, cell-based, Homo sapiens; details: Homo sapiens, AU565;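 also: cell viability assay measuring growth inhibition of human AU565 cells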
Description: SANGER: Inhibition of human AU565 cell growth in a cell viability assay.

BHY = assay: cells; format: functional, cell-based, Homo sapiens; details: Homo sapiens, BHY
Description: SANGER: Inhibition of human BHY cell growth in a cell viability assay.

CAL-120 = assay: cells; format: functional, cell-based, Homo sapiens; details: Homo sapiens, CAL-120
Description: SANGER: Inhibition of human CAL-120 cell growth in a cell viability assay.

CAL-54 = assay: cells; format: functional, cell-based, Homo sapiens; details: Homo sapiens, CAL-54;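 also: growth inhibition of CAL-54 cells, read out by a viability measurement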
Description: SANGER: Inhibition of human CAL-54 cell growth in a cell viability assay.

TYK-nu = assay: cells; format: functional, cell-based, Homo sapiens; details: Homo sapiens, TYK-nu
Description: SANGER: Inhibition of human TYK-nu cell growth in a cell viability assay.

CAPAN-1 = assay: cells; format: functional, cell-based, Homo sapiens; details: Homo sapiens, CAPAN-1;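 also: growth suppression of CAPAN-1 cells, read out by a cell viability assay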
Description: SANGER: Inhibition of human CAPAN-1 cell growth in a cell viability assay.

CHP-212 = assay: cells; format: functional, cell-based, Homo sapiens; details: Homo sapiens, CHP-212
Description: SANGER: Inhibition of human CHP-212 cell growth in a cell viability assay.

COc1cc(-c2nn([C@H]3CC[C@H](N4CCN(C(C)=O)CC4)CC3)c3ncnc(N)c23)ccc1NC(=O)c1cc2ccccc2n1C
pIC50 (IST-SL2): 5.93 | pIC50 (MOLT-13): < 5.29 | pIC50 (NCI-H1417): < 5.29 | pIC50 (NCI-H1522): < 5.29 | pIC50 (NCI-H322M): < 5.29 | pIC50 (RPMI-6666): 5.80 | pIC50 (RPMI 8402): < 5.29 | pIC50 (SNU-C1): < 5.29 | pIC50 (SU-DHL-1): < 5.29 | pIC50 (ARH-77): < 5.29 | pIC50 (TE-441-T): < 5.29 | pIC50 (TUR): < 5.29 | pIC50 (WSU-NHL): < 5.29

O=C(O)c1ccc(-c2c[nH]c3ncc(-c4ccccc4)cc23)cc1C1CCCC1 [GSK-650394]
pIC50 (DBTRG-05MG): < 4.80 | pIC50 (EFO-21): < 4.80 | pIC50 (FaDu): < 4.80 | pIC50 (G-361): 5.43 | pIC50 (GAMG): 5.41 | pIC50 (HT-3): < 4.80 | pIC50 (IGROV-1): 5.28 | pIC50 (IST-SL2): 5.32 | pIC50 (KU-19-19): < 4.80 | pIC50 (KYSE-520 cell line): < 4.80 | pIC50 (LoVo): 5.00 | pIC50 (MDA-MB-157): < 4.80 | pIC50 (MDA-MB-361): < 4.80 | pIC50 (MEL-HO): < 4.80 | pIC50 (MKN-28): 4.93 | pIC50 (MeWo): < 4.80 | pIC50 (NCI-H1417): < 4.80 | pIC50 (NCI-H1522): < 4.80 | pIC50 (NCI-H2405): < 4.80 | pIC50 (NCI-H322M): < 4.80 | pIC50 (NUGC-3): < 4.80 | pIC50 (PC-14): < 4.80 | pIC50 (RPMI-6666): < 4.80 | pIC50 (RPMI 8402): < 4.80 | pIC50 (SBC-5): 4.83 | pIC50 (SF-295): 5.12 | pIC50 (SNU-C1): < 4.80 | pIC50 (SU-DHL-1): < 4.80 | pIC50 (SW837): < 4.80 | pIC50 (SAOS-2): < 4.80 | pIC50 (SiHa): < 4.80 | pIC50 (T98G): < 4.80 | pIC50 (CWR22R): < 4.80 | pIC50 (A-427): 5.73 | pIC50 (ARH-77): < 4.80 | pIC50 (AU565): < 4.80 | pIC50 (BHY): 5.31 | pIC50 (CAL-120): < 4.80 | pIC50 (CAL-54): < 4.80 | pIC50 (TE-441-T): < 4.80 | pIC50 (TUR): 5.33 | pIC50 (TYK-nu): < 4.80 | pIC50 (WSU-NHL): < 4.80 | pIC50 (CAPAN-1): < 4.80 | pIC50 (CHP-212): < 4.80

COc1cc2ncn(-c3cc(OCc4ccccc4C(F)(F)F)c(C(N)=O)s3)c2cc1OC [GW843682X]
pIC50 (IST-SL2): 6.95 | pIC50 (MOLT-13): 7.92 | pIC50 (NCI-H1417): < 6.59 | pIC50 (NCI-H1522): < 6.59 | pIC50 (NCI-H322M): < 6.59 | pIC50 (RPMI-6666): 7.08 | pIC50 (RPMI 8402): 8.33 | pIC50 (SNU-C1): < 6.59 | pIC50 (SU-DHL-1): 7.03 | pIC50 (ARH-77): 7.24 | pIC50 (TE-441-T): < 6.59 | pIC50 (TUR): < 6.59 | pIC50 (WSU-NHL): < 6.59
